{"source": "patent US5112804A", "about": "“Pharmaceutical composition and method of intranasal administration” (Temple University of the Commonwealth System of Higher …, priority 1989, dated 1992)", "test_system": "blood glucose level", "assay": "Insulin absorption animal study, continuous blood glucose monitoring after nasal administration", "assay_type": "in vivo, dog", "conditions": "dogs", "text": "The hypoglycemic effect of the above preparations was confirmed in animal glucose monitoring studies utilizing continuous glucose monitoring with the device described in J. Clin. Endocrinol. Metab. 53: 1145 (1984). The device consists of a system for nonthrombogenic blood withdrawal coupled to a system for blood glucose measurement. The blood withdrawal system includes a disposable sterile intravenous needle and catheter connected to a peristaltic pump. The inside wall of the catheter is coated with tridodecyclmethylammonium chloride complexed with heparin to provide a nonthrombogenic surface. Blood is continuously withdrawn at a rate of 12 ml/hr from the experimental animal via the nonthrombogenic catheter. The blood is diluted in a Plexiglass mixing chamber with six volumes of phosphate buffer solution (0.015 M; pH 7.4) containing 10 IU/ml heparin and then moved into the device's sensory chamber. […]\nSix preconditioned female mongrel hound dogs treated for worms, weighing 19-20 kg, were fasted overnight and anesthetized in the morning with intravenous \"NEMBUTAL\" sodium pentobarbital (250 mg initial dose, 25 mg every 30 minutes for maintenance). […] Blood glucose level was continuously monitored. The resulting decrease in blood glucose level for the insulin dosages in Table 1 are recorded in FIGS. 1 to 12."}
{"smiles": "CC1(C)[C@@H](O)CC[C@]2(C)[C@H]3C(=O)C=C4[C@@H]5C[C@@](C)(C(=O)O)CC[C@]5(C)CC[C@@]4(C)[C@]3(C)CC[C@@H]12", "note": "[glycyrrhetinic acid]", "values": [{"measurement": "enhancing absorption of insulin across the nasal membrane", "result": "effective"}]}
